# Literature values as cited in publication PMC3026871 (Cancer chemotherapy and pharmacology, 2010).
# Molecular target: Aurora A kinase in skin basal epithelial cells (Homo sapiens, UniProt O14965)
# Conditions: subsequent studies, similar times, identical assays; cited from earlier work
# Sequence of Aurora A kinase in skin basal epithelial cells (O14965 whole entry): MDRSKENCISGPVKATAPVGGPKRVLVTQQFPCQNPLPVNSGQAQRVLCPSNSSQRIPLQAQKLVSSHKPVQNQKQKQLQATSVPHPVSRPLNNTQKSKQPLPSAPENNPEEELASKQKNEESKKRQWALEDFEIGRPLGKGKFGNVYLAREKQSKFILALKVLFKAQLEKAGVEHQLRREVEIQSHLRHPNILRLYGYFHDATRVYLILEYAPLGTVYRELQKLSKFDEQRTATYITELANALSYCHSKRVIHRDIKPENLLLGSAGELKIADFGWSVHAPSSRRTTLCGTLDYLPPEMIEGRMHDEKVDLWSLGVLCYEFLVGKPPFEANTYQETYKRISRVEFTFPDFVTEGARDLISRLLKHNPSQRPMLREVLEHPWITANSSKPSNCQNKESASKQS
structure (smiles),measurement,value
COc1cc(Nc2ncc3c(n2)-c2ccc(Cl)cc2C(c2c(F)cccc2OC)=NC3)ccc1C(=O)O [MLN8237],pharmacodynamic activity in skin biopsies,dose-dependent pharmacodynamic activity in skin biopsies
